Reference: patent US4231946A, “14,15-Methylene derivatives of the estrane series and methods for preparing same” (VEB Jenapharm, priority 1978, dated 1980)
Like-named read-outs stand apart in the source and are kept apart here.

Test system: rats (testicular mass)
Experiment: Antigonadotrophic activity (testicular mass) in rats
Format: in vivo, rat
Conditions: for ED50: Rattus norvegicus; for IE %: testicular mass
Description: The effective dose for the HE50 was close to 0.65 mg/kg of body-wt./5 d, while mestranol has the same effect at a dose as low as 0.15 mg/kg of body-wt./5 d.

[1] = total dose 0.25 mg/kg of body-wt. p.o., n=9
[2] = total dose 0.50 mg/kg of body-wt. p.o., n=10
[3] = total dose 1.00 mg/kg of body-wt. p.o., n=10

## COc1ccc2c(c1)CC[C@@H]1[C@@H]2CC[C@]2(C)[C@@H](O)C[C@H]3C[C@@]312 [STS 593, 3-methoxy-14β,15β-methylene-estra-1,3,5(10)-triene-17β-ol]
120 h, rats, read-out: Effective dose for the HE50, antigonadotrophic
  ED50: ~0.65 mg/kg
po, antigonadotrophic, total dose p.o., read-out: HE 50 (the source's name)
  ED50: 0.65 mg/kg
rats
  Antigonadotrophic effect compared to mestranol: four times weaker than mestranol
[1]
  IE %: 18.1%
  Testicular mass (-x ± s-x): 312.4 ± 42.5 mg
[2]
  IE %: 39.6%
  Testicular mass (-x ± s-x): 272.3 ± 37.7 mg
[3]
  IE %: 68.9%
  Testicular mass (-x ± s-x): 217.6 ± 24.2 mg
